# What was measured:
# M. tuberculosis H37Rv [1] = test: H37Rv MIC in GAST medium; assay type: cell-based, Mycobacterium tuberculosis; details: Mycobacterium tuberculosis, H37RV
# M. tuberculosis H37Rv [2] = test: microbe, parasite or virus in culture; assay type: cell-based; details: Mycobacterium tuberculosis
# [3] = Calculated properties (StarDrop)
# physchem = assay type: physicochemical; details: water, kinetic from dmso stock, Kinetic solubility
# Method: The aqueous solubility of the test compounds was measured using laser nephelometry. Compounds were subject to serial dilution from 10 to 0.5 mM in DMSO. An aliquot was then mixed with Milli-Q water to obtain an aqueous dilution plate with a final concentration range of 250–12 μM, with a final DMSO concentration of 2.5%. Triplicate aliquots were transferred to a flat bottomed polystyrene plate which was immediately read on the NEPHELOstar (BMG Lab Technologies). The amount of laser scatter caused by insoluble particulates (relative nephelometry units, RNU) was plotted against compound concentration using a segmental regression fit, with the point of inflection being quoted as the compounds aqueous solubility (μM).
# [4] = target: T1, recombinant MBP-MtNdh (MTb NDH-2) (Mycobacterium tuberculosis, UniProt P95160); test: Ndh activity assay (NADH oxidation at 340 nm); assay type: biochemical
# T1 construct: The ORF corresponding to Rv1854c was codon optimized for E. coli; made in house; host or cells: E. coli BL21 (DE3) pLysS
# T1 sequence (P95160 whole entry): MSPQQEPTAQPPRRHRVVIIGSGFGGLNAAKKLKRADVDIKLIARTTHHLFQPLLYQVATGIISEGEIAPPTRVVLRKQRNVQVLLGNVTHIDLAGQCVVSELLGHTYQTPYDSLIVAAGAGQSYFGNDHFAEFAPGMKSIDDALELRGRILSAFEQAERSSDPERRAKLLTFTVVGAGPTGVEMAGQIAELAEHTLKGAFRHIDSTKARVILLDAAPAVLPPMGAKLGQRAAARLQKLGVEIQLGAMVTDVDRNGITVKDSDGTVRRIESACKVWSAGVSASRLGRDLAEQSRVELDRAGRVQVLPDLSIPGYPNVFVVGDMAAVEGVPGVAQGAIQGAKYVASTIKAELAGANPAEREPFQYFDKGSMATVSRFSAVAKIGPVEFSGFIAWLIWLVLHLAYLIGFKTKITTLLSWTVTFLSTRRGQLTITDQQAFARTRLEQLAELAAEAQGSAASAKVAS
# ndhA mutant = assay type: cell-based; details: results not shown
structure (smiles),measurement,setting,value
"O=C(CSc1nc2ccccc2c(=O)[nH]1)NC1CCCCC1 [Compound 1, N-Cyclohexyl-2-((4-oxo-3,4-dihydroquinazolin-2-yl)thio)acetamide]",MIC,M. tuberculosis H37Rv [1]; read-out: GAST MIC,0.3 µM
same,MIC,M. tuberculosis H37Rv [1]; read-out: GAST MIC in ng/mL,95 ng/mL
same,MIC,M. tuberculosis H37Rv [2]; read-out: 7H9-ADC MIC,0.6 µM
same,MIC,M. tuberculosis H37Rv [2]; read-out: 7H9-ADC MIC in ng/mL,190 ng/mL
same,PFI,[3],4.7
same,solubility kinetic,physchem,83 µM
same,IC50,"[4]; NADH 250 μM, Q2 40 μM, mean ± SD, Figure 6 inset, read-out: IC50 against MBP-MtNdh",23 ± 8 nM
same,Ki,"[4]; varying Q2 or NADH, double reciprocal plots, read-out: Ki against MtNdh",30 to 40 nM
same,Mode of inhibition against MtNdh,[4]; versus Q2 and NADH,noncompetitive mode of inhibition with both substrates
same,MIC to ndhA mutant strain compared with WT,ndhA mutant,indistinguishable from WT cells
same,HepG2 cytotoxicity (in words),HepG2,no noticeable cytotoxicity
